These results are taken from patent US20020091148A1, “3-substituted indole antiproliferative angiogenesis inhibitors” (priority 2000, published 2002).

Usually melting point stands for the temperature, or range, at which the solid turns liquid.

One data set concerns certain tumor models. The following applies: Adv. Cancer Res. 2000, 79, 1-38; cited from earlier work.

For `CN(C)C(=O)c1c(C(=O)NN=Cc2ccc3ccccc3c2)[nH]c2ccccc12` [Example 136, N,N-dimethyl-2-((2-(2-naphthylmethylene)hydrazino)carbonyl)-1H-indole-3-carboxamide], the melting point was 256 to 260 °C. Turning to `Cc1cc(C)c(/C=C2\C(=O)Nc3ccccc32)[nH]1` [SU5416], the “in vivo activity against certain tumor models” value in the data set with certain tumor models is recorded as “good in vivo activity”. `CSc1c(C(=O)NN=Cc2ccc(Cl)cc2)[nH]c2ccccc12` [Example 108, N′-((4-chlorophenyl)methylidene)-3-(methylthio)-1H-indole-2-carbohydrazide] gave a melting point of 232 to 235 °C. For the compound `O=C(NN=Cc1ccc(Cl)cc1)c1[nH]c2ccccc2c1Br` [Example 119, 3-bromo-N′-((4-chlorophenyl)methylidene)-1H-indole-2-carbohydrazide], the melting point was > 250 °C.

In the case of `O=C(NN=Cc1ccc(Cl)cc1)c1[nH]c2ccccc2c1C(=O)Nc1ccccc1` [Example 107, 2-((2-(4-chlorobenzylidene)hydrazino)carbonyl)-N-phenyl-1H-indole-3-carboxamide], the melting point is > 260 °C. Same read-out and setting: the figure for `CS(=O)(=O)c1c(C(=O)NN=Cc2nccs2)[nH]c2ccccc12` [Example 111, 3-(methylsulfonyl)-N′-(1,3-thiazol-2-ylmethylidene)-1H-indole-2-carbohydrazide] is > 280 °C; for `CN(N=Cc1cnc[nH]1)C(=O)c1[nH]c2ccccc2c1-c1ccccc1` [Example 152, N′-(1H-imidazol-5-ylmethylidene)-N-methyl-3-phenyl-1H-indole-2-carbohydrazide] it is 248 to 250 °C; for `COc1c(C(=O)NN=Cc2ccc(Cl)cc2)[nH]c2ccccc12` [Example 118, N′-((4-chlorophenyl)methylidene)-3-methoxy-1H-indole-2-carbohydrazide] it is 249 to 251 °C. Still for that read-out and setting: the figure for `O=C(NN=Cc1ccc(Br)cc1)c1[nH]c2ccccc2c1Cc1ccccc1` [Example 104, 3-benzyl-N′-((4-bromophenyl)methylidene)-1H-indole-2-carbohydrazide] is 227 to 229 °C. As for `CSc1c(C(=O)NN=Cc2nccs2)[nH]c2ccccc12` [Example 109, 3-(methylthio)-N′-(1,3-thiazol-2-ylmethylidene)-1H-indole-2-carbohydrazide], the melting point lay within 216 to 222 °C. Regarding `CS(=O)(=O)c1c(C(=O)NN=Cc2cccc3ccccc23)[nH]c2ccccc12` [Example 135, 3-(methylsulfonyl)-N′-(1-naphthylmethylidene)-1H-indole-2-carbohydrazide], the melting point is > 250 °C. As for `O=C(NN=Cc1ccc(Cl)cc1)c1[nH]c2ccccc2c1Cc1ccccc1` [Example 103, 3-benzyl-N′-((4-chlorophenyl)methylidene)-1H-indole-2-carbohydrazide], the melting point fell in the range of 221 to 222 °C.

Compound `CN(N=Cc1ccc(Br)cc1)C(=O)c1[nH]c2ccccc2c1-c1ccccc1` [Example 151, N′-((4-bromophenyl)methylidene)-N-methyl-3-phenyl-1H-indole-2-carbohydrazide] showed a melting point of 210 to 212 °C. With `CN(N=Cc1ccco1)C(=O)c1[nH]c2ccccc2c1-c1ccccc1` [Example 149, N′-(2-furylmethylidene)-N-methyl-3-phenyl-1H-indole-2-carbohydrazide], the melting point was 196 to 199 °C. The same measure, in the same setting: the value for `CCN(CC)C(=O)c1c(C(=O)NN=Cc2ccc(Cl)cc2)[nH]c2ccccc12` [Example 105, 2-((2-(4-chlorobenzylidene)hydrazino)carbonyl)-N,N-diethyl-1H-indole-3-carboxamide] was 255 to 257 °C. Still for that read-out and setting: the figure for `CN(N=Cc1ccc(C#N)cc1)C(=O)c1[nH]c2ccccc2c1-c1ccccc1` [Example 150, N′-((4-cyanophenyl)methylidene)-N-methyl-3-phenyl-1H-indole-2-carbohydrazide] is 194 to 196 °C; for `CS(=O)(=O)c1c(C(=O)NN=Cc2ccc(Cl)cc2)[nH]c2ccccc12` [Example 110, N′-((4-chlorophenyl)methylidene)-3-(methylsulfonyl)-1H-indole-2-carbohydrazide] it is > 280 °C.
